Source: patent US6495699B2, “Metalloproteinase inhibitors, pharmaceutical compositions containing them, and their use” (Agouron Pharmaceuticals Inc., priority 1996, dated 2002)

What was measured:
Human matrilysin (Matr) = molecular target: T1, Human matrilysin (Matr) (Homo sapiens, UniProt P09237); assay: Fluorometric MCA-peptide hydrolysis assay, matrilysin (Matr); type: biochemical; settings: apparent Ki; 10 μM MCA peptide substrate, 37° C., pH 7.5; read-out: Matr (Ki,app)
T1 construct: the catalytic domain was liberated by treatment with 2 mM APMA at 37° C. for 2 hours; ubiquitin (cleaved yes); made in house; host or cells: E. coli
T1 sequence (P09237 95-267): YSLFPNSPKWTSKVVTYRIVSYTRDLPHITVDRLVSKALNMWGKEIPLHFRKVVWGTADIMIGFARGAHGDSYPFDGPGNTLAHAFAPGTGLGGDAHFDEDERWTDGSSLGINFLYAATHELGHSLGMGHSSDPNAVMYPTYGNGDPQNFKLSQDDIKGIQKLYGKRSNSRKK
Outline: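 Catalytic domain of E. coli-expressed human matrilysin assayed at 37° C, pH 7.5 Tricine buffer, 2% DMSO, with 10 μM MCA-Pro-Leu-Gly-Leu-DPA-Ala-Arg-NH2; fluorescence ex 328/em 393 nm over 60 min. Ki,app from steady-state rates fitted to competitive inhibition or Morrison tight-binding equation.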

[1] = molecular target: T2, catalytic domain of human stromelysin (Hsln) (Homo sapiens, UniProt P08254); assay: Fluorometric MCA-peptide hydrolysis assay, stromelysin (Hsln); type: biochemical; settings: apparent Ki; 10 μM MCA peptide substrate, 37° C., pH 7.5; read-out: Hsln (Ki,app)
T2 construct: The catalytic domain of human stromelysin (Hsln) was obtained by expression and purification of a C-terminally truncated prostromelysin-1; made in house; host or cells: E. coli BL21
T2 sequence (P08254 100-272 limits assumed): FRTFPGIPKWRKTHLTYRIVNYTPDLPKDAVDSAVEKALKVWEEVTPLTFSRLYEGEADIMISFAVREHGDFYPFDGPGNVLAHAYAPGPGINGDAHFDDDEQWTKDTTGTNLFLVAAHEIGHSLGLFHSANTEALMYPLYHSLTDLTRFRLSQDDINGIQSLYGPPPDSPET
Outline: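 APMA-activated E. coli–expressed catalytic domain, with 10 μM MCA-Pro-Leu-Gly-Leu-DPA-Ala-Arg-NH2 at 37 °C. Buffer was pH 7.5 Tricine with NaCl, CaCl2, zinc acetate and 2% final DMSO; fluorescence read at ex 328/em 393 nm over 60 min. Ki,app from steady-state rates fitted to competitive or Morrison tight-binding equations.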

[2] = molecular target: T3, human progelatinase A (GelA), catalytic and fibronectin-like portion (Homo sapiens, UniProt P08253); assay: Fluorometric MCA-peptide hydrolysis assay, gelatinase A (GelA); type: biochemical; settings: apparent Ki; 10 μM MCA peptide substrate, 37° C., pH 7.5
T3 construct: The catalytic and fibronectin-like portion of human progelatinase A (GelA) was expressed as a fusion protein with ubiquitin; ubiquitin; made in house; host or cells: E. coli
T3 sequence (P08253 110-465 limits assumed): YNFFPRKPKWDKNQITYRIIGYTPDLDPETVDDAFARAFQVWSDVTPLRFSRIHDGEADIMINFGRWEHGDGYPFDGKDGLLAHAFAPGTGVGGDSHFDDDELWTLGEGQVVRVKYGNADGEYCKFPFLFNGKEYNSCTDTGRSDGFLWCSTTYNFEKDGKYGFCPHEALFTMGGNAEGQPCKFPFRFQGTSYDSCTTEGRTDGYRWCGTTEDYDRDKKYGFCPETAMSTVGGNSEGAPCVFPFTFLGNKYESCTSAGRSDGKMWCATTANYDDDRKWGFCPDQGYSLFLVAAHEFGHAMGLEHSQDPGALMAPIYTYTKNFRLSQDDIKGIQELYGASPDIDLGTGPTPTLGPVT
Outline: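 E. coli-expressed ubiquitin fusion of human proGelA catalytic plus fibronectin-like domains, autoactivated; 10 μM MCA-Pro-Leu-Gly-Leu-DPA-Ala-Arg-NH2, pH 7.5 Tricine/NaCl/CaCl2/Zn buffer, 2% DMSO, 37° C, 60 min. Fluorescence 328/393 nm; steady-state rates fitted to competitive inhibition or Morrison tight-binding equation giving Ki,app (≈Ki since [S]<<Km).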

LogP = type: physicochemical
[3] = molecular target: T4, human collagenase-3 (Coll3) (Homo sapiens, UniProt P45452); assay: Fluorometric MCA-peptide hydrolysis assay, collagenase-3 (Coll3); type: biochemical; settings: apparent Ki; 10 μM MCA peptide substrate, 37° C., pH 7.5; read-out: Coll3 (Ki,app)
T4 construct: the catalytic domain was liberated by treatment with 2 mM APMA at room temperature overnight; ubiquitin (N, cleaved yes); made in house; host or cells: E. coli

[4] = molecular target: T5, fibroblast collagenase-1 catalytic domain (HFC) (Homo sapiens, UniProt P03956); assay: Fluorometric MCA-peptide hydrolysis assay, fibroblast collagenase-1 (HFC); type: biochemical; settings: apparent Ki; 10 μM MCA peptide substrate, 37° C., pH 7.5; read-out: HFC (Ki,app)
T5 construct: The catalytic domain of human collagenase-1 was expressed as a fusion protein with ubiquitin in E. coli; ubiquitin (cleaved yes); made in house; host or cells: E. coli
T5 sequence (P03956 100-269 limits assumed): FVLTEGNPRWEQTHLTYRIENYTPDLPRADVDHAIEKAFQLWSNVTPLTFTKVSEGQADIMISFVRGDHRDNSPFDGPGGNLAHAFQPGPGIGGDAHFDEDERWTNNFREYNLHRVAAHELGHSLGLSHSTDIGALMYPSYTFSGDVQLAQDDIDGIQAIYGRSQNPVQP
Procedure: The catalytic domain of human collagenase-1 was expressed as a fusion protein with ubiquitin in E. coli (see Gehring, E. R., J Biol. Chem., 1995, 270, 22507). After purification of the fusion protein, the fibroblast collagenase-1 catalytic domain (HFC) was released either by treatment with purified, active stromelysin-1 (1:50 w/w ratio), which generated nearly 100% N-terminal Phe1, or by autoprocessing the concentrated collagenase-1 fusion and then incubating at 37° C. for 1 hour. Final purification was completed using zinc chelate chromatography.
Assays were performed in assay buffer (50 mM Tricine pH 7.5, 200 mM sodium chloride, 10 mM calcium chloride, 0.5 mM zinc acetate containing 2% dimethyl sulfoxide (DMSO)) once the substrate and inhibitor were diluted into it. Stock solutions of inhibitors were prepared in 100% DMSO. Stock solutions of the substrate were prepared in 100% DMSO at a concentration of 6 mM.
The assay method was based on the hydrolysis of MCA-Pro-Leu-Gly-Leu-DPA-Ala-Arg-NH2 (American Peptide Co.) at 37° C. (see Knight, C. G. et al., FEBS, 1992, 296, 263-266). The fluorescence changes were monitored with a Perkin-Elmer LS-50B fluorimeter using an excitation wavelength of 328 nm and an emission wavelength of 393 nm. The substrate concentration used in the assays was 10 μM. The inhibitor was diluted into the assays from a solution in 100% DMSO, and controls substituted an equal volume of DMSO so that the final DMSO concentration from inhibitor and substrate dilution in all assays was 2%. […] Proper determination of steady-state rates of substrate cleavage required assay lengths of 60 minutes to allow for complete equilibration of the enzyme-inhibitor complex.
The Km for the MCA peptide substrate with the matrix metalloproteinases is quite high and exceeds its solubility under assay conditions. Consequently, the apparent Ki (Ki,app) was determined to describe the strength of inhibition. However, in this case, Ki,app would be essentially equal to Ki since [S]<<Km. For the determination of Ki,app, the concentration of the inhibitor was varied at a constant and low concentration of substrate and the steady-state rates of fluorescence change determined. In most cases absorptive quench due to the presence of ligand was not observed. For slow-binding inhibitors, onset of inhibition curves were collected for at least 45 minutes so that equilibrium was established. Steady-state rates of fluorescence change were obtained by fitting a curve to an equation for a single exponential decay containing a linear phase. The fitted value of the linear phase was taken as the steady-state rate. The steady-state rates were fitted to the Michaelis equation describing competitive inhibition by non-linear methods. Data resulting from tight-binding inhibition was analyzed, and Ki,app determined by fitting the data to the tight-binding equation of Morrison (Biochem. Biophys. Acta, vol. 185, pp. 269-286 (1969)) by non-linear methods.

[5] = Determination of inhibitor concentration in plasma after oral dosing; type: in vivo, Sprague Dawley rats; settings: Sprague-Dawley, rat plasma, dose 50 mg/kg, vehicle A (molar equivalent of HCl in water)
Procedure: The dosing solution consisted of the inhibitor dissolved in either a molar equivalent of HCl in water (vehicle A), in 60% aq. propylene glycol (vehicle B), or in 2.8 mg/mL sodium bicarbonate in 60% aqueous propylene glycol (vehicle C), yielding a final concentration that ranged from 10-15 mg/ml. Sprague Dawley rats (Hilltop Lab Animals, Scottsdale, Pa.) were dosed as a function of drug weight per body weight, usually 50 mgper kg. Blood was taken from the rats and centrifuged, and the plasma was stored in the freezer. Drug was extracted from a 50 μl plasma aliquot by adding 1 ml of acetonitrile, shaking for 2 minutes, centrifuging for 15 minutes at 4000 rpm, collecting the supernatant, and then evaporating it to dryness under a stream of nitrogen. The samples were reconstituted with 130 μl of mobile phase, shook for 2 minutes, and centrifuged for 15 minutes at 4000 rpm. The supernatant was collected and the samples were analyzed by injecting 100 μl of supernatant onto HPLC.
Quantitation of drug levels was accomplished by generating a standard curve of known drug amounts that were extracted from added plasma. Drug levels were plotted as a function of time and analyzed to provide area under the curve (AUC) and maximum concentration (Cmax) values.

Compound	Ki (Human matrilysin (Matr)) [nM]	Ki [1] [nM]	GelA (Ki,app) [2] [nM]	logP (LogP)	Ki [3] [nM]	Ki [4] [nM]	melting point [°C]	AUC [5] [ng·h/mL]	Cmax [5] [ng/mL]
CNC(=O)[C@@H](NC(=O)[C@@H](CC(=O)O)n1ccc(-c2ccc(-c3ccccc3)cc2)c1)C(C)(C)C [Example 1(e), 3(R)-[3-(Biphenyl-4-yl)-1H-pyrrol-1-yl]-N-[2,2-dimethyl-1(S)-(methylcarbamoyl)propyl]succinamic Acid]	500	3.1	0.108	1.19	0.9				
CNC(=O)[C@@H](NC(=O)[C@@H](CC(=O)O)n1ccc(-c2ccccc2)c1)C(C)(C)C [1(b), N-[2,2-Dimethyl-1(S)-(methylcarbamoyl)propyl]-3(R)-(3-phenyl-1H-pyrrol-1-yl)succinamic acid]		2000	5.91	-0.83	18.3				
CC(C)(C)[C@H](NC(=O)[C@@H](CC(=O)O)n1ccc(-c2ccc(-c3ccc(C(N)=O)cc3)cc2)c1)C(=O)Nc1ccncc1 [Example 5(f), 3(R)-[3-(4′-Carbamoylbiphenyl-4-yl)-1H-pyrrol-1-yl]-N-[2,2-dimethyl-1(S)-(N-(pyridin-4-yl)carbamoyl)propyl]succinamic Acid]	2.1	0.46	0.023	2.56	0.012	818	194 to 196		
CNC(=O)[C@@H](NC(=O)[C@@H](CC(=O)O)n1ccc(-c2ccc(-c3ccc(C(N)=O)cc3)cc2)c1)C(C)(C)C [Example 5(e), 3(R)-[3-(4′-Carbamoylbiphenyl-4-yl)-1H-pyrrol-1-yl]-N-(2,2-dimethyl-1(S)-(methylcarbamoyl)propyl)succinamic Acid]	182	1.7	0.109	1.71	0.076	530			
CC(C)(C)[C@@H](CO)NC(=O)[C@@H](CC(=O)O)n1ccc(-c2ccc(-c3ccncc3)cc2)c1 [Example 5(a), N-[2,2-Dimethyl-1(S)-(hydroxymethyl)propyl]-3(R)-[3-[4-(pyridin-4-yl)phenyl]-1H-pyrrol-1-yl]succinamic Acid]		84	1.6	0.11	1.8		192 to 194	3520	1600
O=C(O)C[C@H](C(=O)N[C@H]1Cc2cn(c3ccccc23)CCOCCNC1=O)n1ccc(-c2ccccc2)c1 [Example 1(c), N-(8-Oxo-4-oxa-1,7-diazatricyclo[9.6.1.0^12,17]octadeca-11(18), 12,14,16-tetraen-9(S)-yl)-3(R)-(3-phenyl-1H-pyrrol-1-yl)succinamic Acid]	16900	486	2	-0.97	0.868				
